Measurements as given in patent US20260232767A1, “INTERLEUKIN-23 RECEPTOR ANTAGONIST PEPTIDES FOR USE IN THE TREATMENT OF PSORIASIS” (Janssen Pharmaceutica NV, priority 2023, published 2026).

Tested on: subjects with moderate-to-severe plaque psoriasis
Experiment: Hematology and chemistry laboratory values by CTCAE grade
Assay type: in vivo, human
Details: through Week 56
Text: The proportion of participants who discontinued study intervention due to one or more AEs was low (n=4). All events were singular in nature with no apparent dose-dependent increase (Table 48 and Table 52). The number of participants with abnormal hematology and chemistry laboratory values with CTCAE toxicity grade≥3 were low through the end of the study (Table 43 through Table 46). There was no apparent dose-dependent increase in laboratory abnormality occurrences.

## CC(=O)NCCCC[C@@H]1NC(=O)[C@H](Cc2c[nH]c3c(C)cccc23)NC(=O)[C@H]([C@@H](C)O)NC(=O)[C@H](CC(N)=O)NC(=O)[C@@H](NC(C)=O)C(C)(C)SSC(C)(C)[C@@H](C(=O)N[C@@H](Cc2ccc(OCCN)cc2)C(=O)N[C@@H](Cc2ccc3ccccc3c2)C(=O)NC2(C(=O)N[C@@H](CCC(=O)O)C(=O)N[C@@H](CC(N)=O)C(=O)N[C@@H](Cc3cccnc3)C(=O)N(C)CC(N)=O)CCOCC2)NC1=O [IL-23 receptor antagonist peptide, Ac-[Pen]*-N-T-[W(7-Me)]-[Lys(Ac)]-[Pen]*-Phe[4-(2-aminoethoxy)]-[2-Nal]-[THP]-E-N-[3-Pal]-Sarc-NH2 (*[Pen]-[Pen]* formdisulfidebond)]
25 mg QD
  Platelets (×10^9/L) (decreased): subjects with Grade 1: 5
  Platelets (×10^9/L) (decreased): subjects with Grade 2: 0
  Platelets (×10^9/L) (decreased): subjects with Grade 3: 0
  Platelets (×10^9/L) (decreased): subjects with Grade 4: 0
  Platelets (×10^9/L) (decreased): subjects with postbaseline maximum toxicity grade >0: 5
  Potassium (decreased): Subjects with Grade 1: 0
  Potassium (decreased): Subjects with Grade 2: 0
  Potassium (decreased): Subjects with Grade 3: 0
  Potassium (decreased): Subjects with Grade 4: 0
  Potassium (decreased): Subjects with postbaseline maximum toxicity grade >0: 0
  Potassium (increased): Subjects with Grade 3: 0
  Potassium (increased): Subjects with Grade 4: 0
  Potassium (increased): Subjects with postbaseline maximum toxicity grade >0: 7
  Sodium (decreased): Subjects with Grade 2: 0
  Sodium (decreased): Subjects with Grade 3: 0
  Sodium (decreased): Subjects with Grade 4: 0
  Sodium (increased): Subjects with Grade 2: 0
  Sodium (increased): Subjects with Grade 3: 0
  Sodium (increased): Subjects with Grade 4: 0
  Total Bilirubin (increased): Subjects with Grade 2: 0
  Total Bilirubin (increased): Subjects with Grade 3: 0
  Total Bilirubin (increased): Subjects with Grade 4: 0
  Triglycerides (increased): Subjects with Grade 4: 0
  WBC (×10^9/L) (decreased): subjects with Grade 2: 0
  WBC (×10^9/L) (decreased): subjects with Grade 3: 0
  WBC (×10^9/L) (decreased): subjects with Grade 4: 0
  WBC (×10^9/L) (increased): subjects with Grade 1: 0
  WBC (×10^9/L) (increased): subjects with Grade 2: 0
  WBC (×10^9/L) (increased): subjects with Grade 3: 0
  WBC (×10^9/L) (increased): subjects with Grade 4: 0
  WBC (×10^9/L) (increased): subjects with postbaseline maximum toxicity grade >0: 0
50 mg QD
  Alanine Aminotransferase (increased): Subjects with Grade 2: 0
  Alanine Aminotransferase (increased): Subjects with Grade 3: 0
  Alanine Aminotransferase (increased): Subjects with Grade 4: 0
  Albumin (decreased): Subjects with Grade 1: 0
  Albumin (decreased): Subjects with Grade 2: 0
  Albumin (decreased): Subjects with Grade 3: 0
  Albumin (decreased): Subjects with Grade 4: 0
  Albumin (decreased): Subjects with postbaseline maximum toxicity grade >0: 0
  Alkaline Phosphatase (increased): Subjects with Grade 2: 0
  Alkaline Phosphatase (increased): Subjects with Grade 3: 0
  Alkaline Phosphatase (increased): Subjects with Grade 4: 0
  Aspartate Aminotransferase (increased): Subjects with Grade 2: 0
  Aspartate Aminotransferase (increased): Subjects with Grade 3: 0
  Aspartate Aminotransferase (increased): Subjects with Grade 4: 0
  Calcium corrected (decreased): Subjects with Grade 2: 0
  Calcium corrected (decreased): Subjects with Grade 3: 0
  Calcium corrected (decreased): Subjects with Grade 4: 0
  Calcium corrected (increased): Subjects with Grade 1: 0
  Calcium corrected (increased): Subjects with Grade 2: 0
  Calcium corrected (increased): Subjects with Grade 3: 0
  Calcium corrected (increased): Subjects with Grade 4: 0
  Calcium corrected (increased): Subjects with postbaseline maximum toxicity grade >0: 0
  Cholesterol (increased): Subjects with Grade 2: 0
  Cholesterol (increased): Subjects with Grade 3: 0
  Cholesterol (increased): Subjects with Grade 4: 0
  Creatine Kinase (increased): Subjects with Grade 3: 0
  Creatinine (increased): Subjects with Grade 2: 0
  Creatinine (increased): Subjects with Grade 3: 0
  Creatinine (increased): Subjects with Grade 4: 0
  Gamma Glutamyl Transferase (increased): Subjects with Grade 2: 0
  Gamma Glutamyl Transferase (increased): Subjects with Grade 3: 0
  Gamma Glutamyl Transferase (increased): Subjects with Grade 4: 0
  Glucose (decreased): Subjects with Grade 2: 0
  Glucose (decreased): Subjects with Grade 3: 0
  Glucose (decreased): Subjects with Grade 4: 0
  Hemoglobin (g/L) (decreased): subjects with Grade 3: 0
  Hemoglobin (g/L) (decreased): subjects with Grade 4: 0
  Hemoglobin (g/L) (decreased): subjects with postbaseline maximum toxicity grade >0: 5
  Hemoglobin (g/L) (increased): subjects with Grade 1: 0
  Hemoglobin (g/L) (increased): subjects with Grade 2: 0
  Hemoglobin (g/L) (increased): subjects with Grade 3: 0
  Hemoglobin (g/L) (increased): subjects with Grade 4: 0
  Hemoglobin (g/L) (increased): subjects with postbaseline maximum toxicity grade >0: 0
  Lymphocytes (×10^9/L) (decreased): subjects with Grade 3: 0
  Lymphocytes (×10^9/L) (decreased): subjects with Grade 4: 0
  Lymphocytes (×10^9/L) (increased): subjects with Grade 1: 0
  Lymphocytes (×10^9/L) (increased): subjects with Grade 2: 0
  Lymphocytes (×10^9/L) (increased): subjects with Grade 3: 0
  Lymphocytes (×10^9/L) (increased): subjects with Grade 4: 0
  Lymphocytes (×10^9/L) (increased): subjects with postbaseline maximum toxicity grade >0: 0
  Magnesium (decreased): Subjects with Grade 1: 0
  Magnesium (decreased): Subjects with Grade 2: 0
  Magnesium (decreased): Subjects with Grade 3: 0
  Magnesium (decreased): Subjects with Grade 4: 0
  Magnesium (decreased): Subjects with postbaseline maximum toxicity grade >0: 0
  Magnesium (increased): Subjects with Grade 2: 0
  Magnesium (increased): Subjects with Grade 3: 0
  Magnesium (increased): Subjects with Grade 4: 0
  Neutrophils (×10^9/L) (decreased): subjects with Grade 3: 0
  Neutrophils (×10^9/L) (decreased): subjects with Grade 4: 0
  Platelets (×10^9/L) (decreased): subjects with Grade 1: 0
  Platelets (×10^9/L) (decreased): subjects with Grade 2: 0
  Platelets (×10^9/L) (decreased): subjects with Grade 3: 0
  Platelets (×10^9/L) (decreased): subjects with Grade 4: 0
  Platelets (×10^9/L) (decreased): subjects with postbaseline maximum toxicity grade >0: 0
  Potassium (decreased): Subjects with Grade 1: 0
  Potassium (decreased): Subjects with Grade 2: 0
  Potassium (decreased): Subjects with Grade 3: 0
  Potassium (decreased): Subjects with Grade 4: 0
  Potassium (decreased): Subjects with postbaseline maximum toxicity grade >0: 0
  Potassium (increased): Subjects with Grade 2: 0
  Potassium (increased): Subjects with Grade 4: 0
  Sodium (decreased): Subjects with Grade 1: 0
  Sodium (decreased): Subjects with Grade 2: 0
  Sodium (decreased): Subjects with Grade 3: 0
  Sodium (decreased): Subjects with Grade 4: 0
  Sodium (decreased): Subjects with postbaseline maximum toxicity grade >0: 0
  Sodium (increased): Subjects with Grade 1: 0
  Sodium (increased): Subjects with Grade 2: 0
  Sodium (increased): Subjects with Grade 3: 0
  Sodium (increased): Subjects with Grade 4: 0
  Sodium (increased): Subjects with postbaseline maximum toxicity grade >0: 0
  Total Bilirubin (increased): Subjects with Grade 3: 0
  Total Bilirubin (increased): Subjects with Grade 4: 0
  Total Bilirubin (increased): Subjects with postbaseline maximum toxicity grade >0: 5
  Triglycerides (increased): Subjects with Grade 1: 0
  Triglycerides (increased): Subjects with Grade 4: 0
  WBC (×10^9/L) (decreased): subjects with Grade 3: 0
  WBC (×10^9/L) (decreased): subjects with Grade 4: 0
  WBC (×10^9/L) (increased): subjects with Grade 1: 0
  WBC (×10^9/L) (increased): subjects with Grade 2: 0
  WBC (×10^9/L) (increased): subjects with Grade 3: 0
  WBC (×10^9/L) (increased): subjects with Grade 4: 0
  WBC (×10^9/L) (increased): subjects with postbaseline maximum toxicity grade >0: 0
100 mg BID
  Alanine Aminotransferase (increased): Subjects with Grade 1: 10
  Alanine Aminotransferase (increased): Subjects with Grade 3: 0
  Alanine Aminotransferase (increased): Subjects with Grade 4: 0
  Albumin (decreased): Subjects with Grade 1: 0
  Albumin (decreased): Subjects with Grade 2: 0
  Albumin (decreased): Subjects with Grade 3: 0
  Albumin (decreased): Subjects with Grade 4: 0
  Albumin (decreased): Subjects with postbaseline maximum toxicity grade >0: 0
  Alkaline Phosphatase (increased): Subjects with Grade 1: 0
  Alkaline Phosphatase (increased): Subjects with Grade 2: 0
  Alkaline Phosphatase (increased): Subjects with Grade 3: 0
  Alkaline Phosphatase (increased): Subjects with Grade 4: 0
  Alkaline Phosphatase (increased): Subjects with postbaseline maximum toxicity grade >0: 0
  Aspartate Aminotransferase (increased): Subjects with Grade 1: 7
  Aspartate Aminotransferase (increased): Subjects with Grade 4: 0
  Aspartate Aminotransferase (increased): Subjects with postbaseline maximum toxicity grade >0: 9
  Calcium corrected (decreased): Subjects with Grade 3: 0
  Calcium corrected (decreased): Subjects with Grade 4: 0
  Calcium corrected (increased): Subjects with Grade 1: 0
  Calcium corrected (increased): Subjects with Grade 2: 0
  Calcium corrected (increased): Subjects with Grade 3: 0
  Calcium corrected (increased): Subjects with Grade 4: 0
  Calcium corrected (increased): Subjects with postbaseline maximum toxicity grade >0: 0
  Cholesterol (increased): Subjects with Grade 2: 0
  Cholesterol (increased): Subjects with Grade 3: 0
  Cholesterol (increased): Subjects with Grade 4: 0
